Data from US9920074B2 (ACEA BIOSCIENCES INC., priority 2013, dated 2018).
Entries after “also recorded” stand apart in the source; their conditions may differ. Where two headings read alike, the source gives them in different places.

Assays:
Type in all cases: cell-based
[1] = target: T1, Btk phosphorylation in Ramos cells (Homo sapiens, UniProt Q06187); assay: Pulse chase western blotting assay for irreversibility / binding property; conditions: 100 nM for 45 mins, monitored 4, 6 and 8 h post removal
T1 construct: endogenous in cells; host or cells: Ramos cells (ATCC)
Method: Ramos cells were treated with Compound I-1 at 100 nM for 45 min. Cells were then re-suspended in compound free media and stimulated with 6 μg/ml IgM at 0, 4, 6 or 8 hours after compound removal. Cells were then lysed after 30 mm IgM stimulation. West blotting analysis were then performed.
Ramos cells were treated with Compounds at 100 nM for 45 min. Cells were then re-suspended in compound free media and stimulated with 6 μg/ml anti-IgM at 0, 4, 6 or 8 hours after compound removal. Cells were then lysed after 30 mm anti-IgM stimulation. Western blotting analysis was then performed.

[2] = target: T2, Btk (Tyr223) phosphorylation in Ramos cells (Homo sapiens, UniProt Q06187); assay: Btk Tyr223 phosphorylation inhibition, western blotting assay (Example 72)
T2 construct: endogenous in cells; host or cells: Ramos cells (ATCC)
Method: Ramos cell line was obtained from the American Type Culture Collection and was maintained at 37° C. with 5% CO2, in media supplemented with 10% fetal bovine serum, penicillin (100 units/mL) and streptomycin (100 μg/mL), Goat F(ab′)2 Anti-Human IgM-UNLB was obtained from SouthernBiotech.
Ramos cells were treated with compounds at indicated doses for 45 min at room temperature, followed by stimulation of 12 μg/mL of IgM for 30 min, and then lysed. Western blots were performed on the cell lysate using Phospho-Btk (Tyr223), Phospho-Btk (Tyr551), Btk, Phospho-PLCγ2 (Tyr1217), PLCγ2, Phospho-p44/42 MAPK (Erk1/2) (Thr202/Tyr204) and p44/42 MAPK (Erk1/2) antibodies (Cell Signaling Technology). The density of blotting band was acquired using ImageJ software, and the IC50 of Btk (Tyr223) phosphorylation was fitted using a non-linear regression model by GraphPad Prism version 4.0.

[3] = target: T2, Btk (Tyr223) phosphorylation in Ramos cells; assay: Western blotting assay for Btk (Example 73); conditions: 45 min, 6 μg/mL anti-IgM, read-out: Btk Inhibition
How it was run: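 Ramos cells pre-treated with compound for 45 min at room temperature, then stimulated with 6 μg/mL anti-IgM for 30 min and lysed. Phospho-Btk (Tyr223) measured by Western blot band densitometry; IC50 fitted by non-linear regression.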

[4] = target: T3, free Btk protein from Ramos cells (Homo sapiens, UniProt Q06187); assay: Btk target site occupancy ELISA assay; conditions: for IC50: ELISA
T3 construct: endogenous in cells; host or cells: Ramos cells (ATCC)
Method: (§1) Ramos cells were treated with Compound I-1 at indicated concentrations for 1 h, followed by stimulation with 6 μg/mL of IgM for 30 mm, and then lysed. Lysates were incubated with Compound I-21 (biotin labeled) at a final concentration of 1 μM in a PBS, 0.05% Tween-20, 1% BSA solution while shaking for 1 h at room temperature. Samples were transferred to a streptavidin-coated 96-well ELISA plate and mixed while shaking for 1 h at room temperature. The Btk antibody (BD 611116, 1:1000 dilution in PBS+0.05% Tween-20+0.5% BSA) was then applied and incubated for 1 h at room temperature. After wash, goat anti-mouse-HRP (Pierce 31432, 1:1000 dilution in PBS+0.05% Tween-20+0.5% BSA) was added and incubated for 1 h at room temperature. The ELISA was developed with addition of tetramethyl benzidine (TMB) followed by Stop Solution and read at OD 450 nm.
as §1, with “Compounds” for “Compound I-1”, “anti-IgM” for “IgM”, “diluted” for “dilution”, “tetramethylbenzidine” for “tetramethyl benzidine”

T3 sequence (Q06187 whole entry): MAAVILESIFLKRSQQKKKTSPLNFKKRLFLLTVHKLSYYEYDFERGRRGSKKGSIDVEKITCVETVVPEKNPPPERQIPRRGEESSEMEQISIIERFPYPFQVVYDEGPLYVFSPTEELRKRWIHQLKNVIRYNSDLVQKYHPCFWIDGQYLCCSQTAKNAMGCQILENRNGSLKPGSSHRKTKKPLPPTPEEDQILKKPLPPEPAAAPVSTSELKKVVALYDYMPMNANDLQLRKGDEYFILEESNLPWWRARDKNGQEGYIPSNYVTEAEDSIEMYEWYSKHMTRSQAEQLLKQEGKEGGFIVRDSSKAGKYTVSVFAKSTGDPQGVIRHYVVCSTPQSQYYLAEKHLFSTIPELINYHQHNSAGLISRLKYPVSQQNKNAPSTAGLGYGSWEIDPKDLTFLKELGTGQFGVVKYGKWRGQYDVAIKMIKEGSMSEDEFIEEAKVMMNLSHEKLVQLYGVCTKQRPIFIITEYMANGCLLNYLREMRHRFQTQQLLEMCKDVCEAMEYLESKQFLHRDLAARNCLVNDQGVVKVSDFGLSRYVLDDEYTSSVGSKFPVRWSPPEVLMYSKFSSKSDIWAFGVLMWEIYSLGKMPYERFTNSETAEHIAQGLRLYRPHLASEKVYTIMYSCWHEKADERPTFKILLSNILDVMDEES
T2 sequence (Q06187 whole entry): as above
T1 sequence (Q06187 whole entry): as above

C=CC(=O)Nc1cccc(Oc2nc(Nc3ccc(N4CCN(C)CC4)cc3)ncc2OC)c1 [Compound I-1, N-(3-(5-methoxy-2-(4-(4-methylpiperazin-1-yl)phenylamino)pyrimidin-4-yloxy)phenyl)acrylamide]
inhibition of BTK phosphorylation after compound removal (irreversibility) [1]: remains inhibited up to 8 his; also recorded: long term effect of the inhibition was observed after compounds removal up to 8 hours; also recorded: remains inhibited up to 8 hrs; also recorded: irreversibly inhibited the BTK phosphorylation; also recorded: inhibited the Btk phosphorylation in Ramos cells after 8 hours of removal
IC50 ([2]; Btk Tyr223 phosphorylation, 45 min, 12 μg/mL IgM, read-out: BTK Inhibition): < 10 nM
IC50 ([2]; treated 45 mins, read-out: inhibition IC50 of the phosphorylation of BTK protein): 1.1 nM
reduction of the Btk Tyr223 phosphorylation in Ramos cells ([2]; western blot): reduction of the Btk Tyr223 phosphorylation; also recorded: dose-dependent inhibition of the BTK phosphorylation
IC50 [3]: ≤ 10 nM
IC50 ([4]; 1 h, read-out: Btk Occupancy Assay (IC50)): ≤ 10 nM
OD 450 (average) ([4]; Compound I-1 0.2 nM): 0.1686
free Btk ([4]; Compound I-1 0.2 nM): 2414 pg
OD 450 (average) ([4]; Compound I-1 0.7 nM): 0.1811
free Btk ([4]; Compound I-1 0.7 nM): 2592 pg
OD 450 (average) ([4]; Compound I-1 3 nM): 0.1219
free Btk ([4]; Compound I-1 3 nM): 1747 pg
OD 450 (average) ([4]; Compound I-1 12 nM): −0.0161
free Btk ([4]; Compound I-1 12 nM): -224 pg
OD 450 (average) ([4]; Compound I-1 47 nM): 0.0114
free Btk ([4]; Compound I-1 47 nM): 168 pg
OD 450 (average) ([4]; Compound I-1 188 nM): −0.0207
free Btk ([4]; Compound I-1 188 nM): -290 pg
OD 450 (average) ([4]; Compound I-1 750 nM): −0.0456
free Btk ([4]; Compound I-1 750 nM): -646 pg
OD 450 (average) ([4]; Compound I-1 3000 nM): −0.0487
free Btk ([4]; Compound I-1 3000 nM): -689 pg
IC50 ([4]; read-out: BTK target site occupancy IC50): 0.5 nM
occupancy of the Btk proteins ([4]; increasing concentrations): dose-dependent occupancy of the BTK proteins correlates with its inhibitory activity of BTK kinase
